Key:
[1] = refractive index (Na D-line) (dimensionless); xn = mol fraction of the nth substance listed; conditions: 101 kPa, Liquid, Standard Abbe refractometry
[2] = xn = mol fraction of the nth substance listed; conditions: 101 kPa, Liquid; for speed of sound: Sing-around technique in a fixed-path interferometer

Cc1ccc(O)cc1 [4-methylphenol] + CCCCCCCCCCO
Conditions | mass density, 298.15 K [kg/m3] | mass density, 303.15 K [kg/m3] | mass density, 308.15 K [kg/m3] | refractive index, 298.15 K | refractive index, 303.15 K | refractive index, 308.15 K | speed of sound, 298.15 K [m/s] | speed of sound, 303.15 K [m/s] | speed of sound, 308.15 K [m/s]
[1], x1 = 0.079 | – | – | – | 1.43878 | 1.43659 | 1.43439 | – | – | –
[1], x1 = 0.1424 | – | – | – | 1.44253 | 1.44025 | 1.43792 | – | – | –
[1], x1 = 0.2213 | – | – | – | 1.44759 | 1.44524 | 1.44279 | – | – | –
[1], x1 = 0.2915 | – | – | – | 1.45252 | 1.45006 | 1.44748 | – | – | –
[1], x1 = 0.3611 | – | – | – | 1.45786 | 1.45529 | 1.45263 | – | – | –
[1], x1 = 0.418 | – | – | – | 1.46259 | 1.45994 | 1.45719 | – | – | –
[1], x1 = 0.4915 | – | – | – | 1.46921 | 1.46649 | 1.46363 | – | – | –
[1], x1 = 0.5566 | – | – | – | 1.47562 | 1.47279 | 1.46987 | – | – | –
[1], x1 = 0.6321 | – | – | – | 1.48379 | 1.48088 | 1.47785 | – | – | –
[1], x1 = 0.7041 | – | – | – | 1.49234 | 1.48935 | 1.48629 | – | – | –
[1], x1 = 0.7628 | – | – | – | 1.49988 | 1.49689 | 1.49381 | – | – | –
[1], x1 = 0.8229 | – | – | – | 1.50829 | 1.50524 | 1.50212 | – | – | –
[1], x1 = 0.8793 | – | – | – | 1.51677 | 1.51369 | 1.51055 | – | – | –
[1], x1 = 0.9382 | – | – | – | 1.52626 | 1.52321 | 1.52011 | – | – | –
[1], x1 = 1 | – | – | – | 1.537 | 1.534 | 1.531 | – | – | –
[2], x1 = 0.079 | 836.102 | 832.641 | 829.175 | – | – | – | 1384.9 | 1367.8 | 1350.9
[2], x1 = 0.1424 | 844.261 | 840.772 | 837.278 | – | – | – | 1389 | 1371.9 | 1355.1
[2], x1 = 0.2213 | 855.053 | 851.531 | 847.999 | – | – | – | 1394 | 1376.9 | 1360
[2], x1 = 0.2915 | 865.315 | 861.764 | 858.196 | – | – | – | 1398.6 | 1381.6 | 1364.7
[2], x1 = 0.3611 | 876.182 | 872.603 | 869.001 | – | – | – | 1403.5 | 1386.4 | 1369.6
[2], x1 = 0.418 | 885.652 | 882.051 | 878.417 | – | – | – | 1407.7 | 1390.8 | 1373.9
[2], x1 = 0.4915 | 898.718 | 895.088 | 891.418 | – | – | – | 1413.7 | 1396.8 | 1379.9
[2], x1 = 0.5566 | 911.201 | 907.546 | 903.844 | – | – | – | 1419.6 | 1402.7 | 1385.9
[2], x1 = 0.6321 | 926.903 | 923.218 | 919.477 | – | – | – | 1427.5 | 1410.7 | 1394
[2], x1 = 0.7041 | 943.248 | 939.531 | 935.758 | – | – | – | 1436.1 | 1419.4 | 1402.8
[2], x1 = 0.7628 | 957.751 | 954.009 | 950.207 | – | – | – | 1444 | 1427.3 | 1411
[2], x1 = 0.8229 | 973.785 | 970.012 | 966.196 | – | – | – | 1453.2 | 1436.7 | 1420.2
[2], x1 = 0.8793 | 990.126 | 986.325 | 982.485 | – | – | – | 1462.3 | 1446.2 | 1429.9
[2], x1 = 0.9382 | 1008.68 | 1004.85 | 1000.99 | – | – | – | 1474.2 | 1458 | 1442.4
[2], x1 = 1 | 1030.14 | 1026.28 | 1022.38 | – | – | – | 1486.4 | 1470.7 | 1455
